Test results: patent publication US20060029548A1, “Methods of diagnosing, monitoring and treating pulmonary diseases” (priority 2004, published 2006)

Legend:
[1] = tested on: vagal C fiber; test: Vagal activation experiments in dogs: action potentials in vagal C fibers; assay type: in vivo; details: anesthetized dog, rapid bolus; simultaneous recording with RAR-containing fiber
Description: (§1) The experiments described in Example 5 were performed essentially as described in Pelleg et al. [(1996) J. Physiol. 490(1):265-275] and U.S. Pat. No. 5,874,420, both of which are incorporated herein by reference in their entirety. In brief, they were performed on anesthetized (sodium pentobarbitone, 30 mg kg^−1 plus 3 mg kg^−1 h^−1, intravenous) dogs artificially ventilated with room air using a respirator. Arterial blood pH, PO2, PCO2, body temperature were maintained as described in U.S. Pat. No. 5,874,420. A peripheral vein was cannulated for the administration of physiological saline solution and maintenance doses of anesthetic. Catheters were introduced via the femoral vein and left atrial appendage and positioned in the right atrium and left atrium for the administration of test solutions. The chest was opened by a longitudinal sternotomy. The right cervical vagosympathetic trunk was exposed by a midcervical longitudinal section of the skin and careful dissection of neck muscles and connective tissues. The edges of the cut skin were elevated and secured to create a trough which was filled with warm (about 37° C.) mineral oil. A section of the vagosympathetic trunk was placed on a small plate of black Perspex™ and fine branches were separated from the main bundle by careful dissection using microsurgical tools and a dissecting microscope (Model F212, Jenopik Jena, GmbH, Germany).
Extracellular neural action potentials were recorded using a custom-made bipolar electrode that contained two platinum-iridium wires (1.25 cm×0.0125 cm) connected to a high-impedence first-stage differential amplifier (model AC8331, CW, Inc., Ardmore, Pa.) via a shielded cable. The output of the first-stage amplifier was fed into a second-stage differential amplifier (model BMA-831/C, CWE, Inc.). Isolated fibers were laid on the pair of platinum-iridium wires. Vagal C fibers with chemosensitive endings have a sparse irregular discharge which is not associated with cardiac or respiratory cycles. […]
ATP (3 umole kg^−1) and capsaicin (10 ug kg^−1) were administered as a rapid bolus into the right atrium (5 ml test solution+5 ml physiological saline flush). α,βmATP and β,γmATP were given as one low dose only (0.75 umol kg^−1) to avoid systemic side effects. […] To exclude involvement of baroreceptors in the recorded neural activity, the latter was monitored before and after a bolus of nitroglycerine (1 mg; intravenous). […]

[2] = tested on: pulmonary RAR-containing afferent nerve fiber; test: Vagal activation experiments in dogs: action potentials in RAR-containing fibers; assay type: in vivo; details: anesthetized dog; for effect on action potentials of RAR-containing fibers: rapid bolus, ATP 6 μmol/kg, capsaicin 10 ug kg−1, analogs 0.75 umol kg−1
Description: as §1
Extracellular neural action potentials were recorded using a custom-made bipolar electrode that contained two platinum-iridium wires (1.25 cm×0.0125 cm) connected to a high-impedence first-stage differential amplifier (model AC8331, CW, Inc., Ardmore, Pa.) via a shielded cable. The output of the first-stage amplifier was fed into a second-stage differential amplifier (model BMA-831/C, CWE, Inc.). Isolated fibers were laid on the pair of platinum-iridium wires. Vagal C fibers with chemosensitive endings have a sparse irregular discharge which is not associated with cardiac or respiratory cycles. Confirmation of fiber type was obtained by: first monitoring the response to capsaicin (10 microg kg^−1, intra-right atrial bolus); second, monitoring the response to mechanical stimulation of the lungs using gentle probing with forceps as well as inflation of the lungs to 2-3 times the tidal volume; and third, determining the speed of conduction using a stimulating electrode positioned distal to the initial recording site. Nerve fibers with RAR on their pulmonary endings, spontaneously fire a brief (i.e., short lasting) volley of action potentials associated with peak tracheal pressure during each respiratory cycle.
[…] Volume controls consisted of either 5 ml+5 ml or 1 ml+3 ml physiological saline. All injections were performed in the same mode by the same person. To exclude involvement of baroreceptors in the recorded neural activity, the latter was monitored before and after a bolus of nitroglycerine (1 mg; intravenous).
The procedure described in Example 1 was used to measure action potentials in dog pulmonary fibers with RAR on their terminals following administration of various agents. RAR activation generated a brief volley of action potentials associated with each respiratory cycle that was seen before as well as after administration of ATP (FIG. 7). […] Thus ATP modified the activity of the RAR-containing fiber manifested in their transient loss of the rapid adaptability characteristic.

[3] = tested on: vagal action potentials elicited by ATP; details: dog; cited from earlier work
[4] = tested on: pulmonary vagal afferent C fibers (P2X3/P2X2/3-receptors); test: Perfused nerve-lung preparation: action potentials in C fibers; assay type: cell-based, guinea pig
Description: (§2) The method for the extracellular recording of the activity of vagal sensory neurons projecting to guinea pig lungs -has been described in detail previously in Canning et al. [(2004) J. Physiol. 557:543-545], which is incorporated herein by reference in its entirety. Briefly, male Hartley guinea pigs (100-200 g) were killed with CO2 inhalation and exsanguination. The blood from the pulmonary circulation was washed out by in situ perfusion with Krebs' bicarbonate solution (KBS; comprised of 118 mM NaCl, 5.4 mM KCl, 1.0 mM NaH2PO4, 1.2 mM MgSO4, 1.9 mM CaCl2, 25.0 mM NaHCO3, 11.1 mM dextrose, and gassed with 95% O2-5% CO2 at pH7.4). The KBS contained 3 uM indomethacin to reduce the indirect influence of tissue prostanoids on sensory fiber activity. Trachea and right lungs, having intact right-side extrinsic vagal innervation by the inclusion, e.g., of right jugular and nodose ganglia, were dissected from the exsanguinated guinea pigs and placed in a two-compartment tissue bath. The right nodose and jugular ganglia, along with the rostral vagus nerve, were placed into one compartment of the tissue bath whereas the lung and trachea were placed into the second compartment of the tissue bath. The two compartments were separately superfused with KBS (6 ml min^−1, at 37° C.).
(§3) The pulmonary artery and trachea were cannulated with polyethylene (PE) tubing and continuously perfused with KBS (4 ml min^−1 and 2 ml min^−1, respectively). […]
(§4) Once a mechanosensitive receptive field was identified, a brief [<1 millisecond (ms)] electrical stimulus was delivered by a small concentric electrode that was positioned over a discrete region of the mechanosensitive receptive field to determine the conduction velocity of the fiber. […] Conduction velocity was calculated by dividing the distance along the nerve pathway by the time between the shock artifact and the action potential evoked by electrical stimulation of the mechanosensitive receptive field. […]

[5] = tested on: pulmonary vagal afferent A fibers (P2X3/P2X2/3-receptors); test: Perfused nerve-lung preparation: action potentials in A fibers; assay type: cell-based, guinea pig
Description: as §2, §3, §4

For `Nc1ncnc2c1ncn2[C@@H]1O[C@H](COP(=O)(O)OP(=O)(O)CP(=O)(O)O)[C@@H](O)[C@H]1O` [β,γmATP, β,γ-methylene ATP], the “effect on action potentials of C fibers” value [1] was “acted similarly to ATP” and the “effect on action potentials of RAR-containing fibers” value (“effect … of RAR-containing fibers” for short) [2] was “acted similarly to ATP”.

In the case of `Cc1nc(N=Nc2ccc(S(=O)(=O)O)cc2S(=O)(=O)O)c(COP(=O)(O)O)c(C=O)c1O` [PPADS, pyridoxalphosphate-6-azophenyl-2′4′-disulphonic acid], the “effect on number of vagal action potentials elicited by ATP” value [3] is listed as “reduced the number of vagal action potentials”.

In the case of `COc1cc(CNC(=O)CCCC/C=C/C(C)C)ccc1O` [capsaicin], the “effect on action potentials of C fibers” value [1] is reported as “stimulated only the former” and the “effect … of RAR-containing fibers” value [2] is reported as “did not alter the firing pattern”.

With `Nc1ncnc2c1ncn2[C@@H]1O[C@H](COP(=O)(O)CP(=O)(O)OP(=O)(O)O)[C@@H](O)[C@H]1O` [α,βmATP, α,β-methylene ATP] the “effect on action potentials of C fibers” value [1] was “acted similarly to ATP”, the “potency relative to ATP” value ([2]; FIG. 9) was “more potent than ATP” and the “effect … of RAR-containing fibers” value [2] was “acted similarly to ATP”. The “frequency of the generated action potentials” value ([4]; C fibers (n=4), 10 μM, 1 mL bolus, mean±SD) was 146±29 discharge/sec and the “frequency of the generated action potentials” value ([5]; A fibers (n=7), 10 μM, 1 mL bolus, mean±SD) was 1543±285 discharge/sec.

With `O=C(O)c1cc(C(=O)O)c(C(=O)N(Cc2cccc(Oc3ccccc3)c2)[C@H]2CCCc3ccccc32)cc1C(=O)O` [A-317491, 5-({(3-phenoxybenzyl)[(1S)-1,2,3,4-tetrahydro-1-napththalenyl]amino}carbonyl)-1,2,4-benzenetricarboxylic acid] the “inhibition of the action of α,βmATP” value ([4]; C fibers, antagonist 1 uM, 30 min, α,βmATP 10 uM 1 ml bolus) was “no inhibitory effect”, the “reduction of response to α,βmATP” value ([4]; C fibers, antagonist 10 uM, 30 min, α,βmATP 10 uM 1 ml bolus) was 62±5% and the “inhibition of the action of α,βmATP” value ([5]; A fibers, antagonist 1 uM, 30 min, α,βmATP 10 uM 1 ml bolus) was 59±12%. The “reduction of response to α,βmATP” value ([5]; A fibers, antagonist 10 uM, 30 min, α,βmATP 10 uM 1 ml bolus) was 88±5%.
